Experimental findings from ChEMBL document CHEMBL1201862, “PubChem BioAssay data set” (2004) are described below.

Among the test systems are SK-MEL-5; EKVX; HOP-92; KM12; K562; RPMI-8226; IGROV-1; HCT-116; HCT-15; OVCAR-3; UACC-257; UO-31; CCRF-CEM; NCI-H522; TK-10; SW-620; HOP-62; DU-145; HCC 2998; RXF 393.
Assay in all cases: DTP human tumour cell line panel, 48 h

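A five-concentration, 48-hour dose response in 96-well plates underlies each endpoint, interpolated linearly between surrounding concentrations. Abbreviation: GI50, concentration required for 50% inhibition of growth.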 Calls of active or inactive are those of the source. Cut-off read from the data, not from the text of the source: active = GI50 up to about 1.1 µM and inactive = higher.

In the case of `Cc1cccc2c1CC(C1OC(=O)c3ccccc31)C2=O` (stereo not given), the GI50 with SK-MEL-5, in the assay with EKVX, in the assay on HOP-92, with KM12, with K562 and in the assay on RPMI-8226 was > 100 µM (inactive) each time. Moreover, the GI50 was > 100 µM (inactive) in the assay on IGROV-1; > 100 µM (inactive) in the assay with HCT-116; > 100 µM with HCT-15; > 100 µM (inactive) in the assay on OVCAR-3; > 100 µM (inactive) with UACC-257; > 100 µM (inactive) with UO-31. The GI50 in the assay on CCRF-CEM, in the assay on NCI-H522, with TK-10, in the assay with SW-620, in the assay on HOP-62 and in the assay on DU-145 was > 100 µM (inactive) in each case. Moreover, the GI50 in the assay with HCC 2998 and in the assay with RXF 393 was > 100 µM (inactive) in each case.

On to `COc1ccc(C(=O)CC(c2ccc(OC)c(OC)c2)c2c(O)oc3ccccc3c2=O)cc1OC` (stereo not given), for which the GI50 in the assay with SK-MEL-5 was > 100 µM (inactive); in the assay with EKVX, > 100 µM (inactive); in the assay on HOP-92 it was 28.4 µM (inactive); in the assay with KM12 it was > 100 µM (inactive); in the assay on K562 it was > 100 µM (inactive); with RPMI-8226, 95.1 µM (inactive). Also, the GI50 with IGROV-1 was > 100 µM (inactive); in the assay on HCT-116 it was > 100 µM (inactive); in the assay on HCT-15, > 100 µM; in the assay on OVCAR-3, > 100 µM (inactive); in the assay with UACC-257, > 100 µM (inactive); in the assay with UO-31 it was > 100 µM (inactive). In addition, the GI50 in the assay on CCRF-CEM, with NCI-H522, in the assay on TK-10, with SW-620, in the assay on HOP-62 and with DU-145 was > 100 µM (inactive) each time. In addition, the GI50 in the assay on HCC 2998 and in the assay with RXF 393 was > 100 µM (inactive) in each case.

On to `CC1NCCC(CC(=O)O)C1CC(=O)O` (stereo not given), for which the GI50 with SK-MEL-5, in the assay with EKVX, in the assay with HOP-92, in the assay with KM12, in the assay on K562 and in the assay with RPMI-8226 was > 100 µM (inactive) throughout. The GI50 is > 100 µM (inactive) with IGROV-1; > 100 µM (inactive) in the assay with HCT-116; > 100 µM in the assay with HCT-15; > 100 µM (inactive) with OVCAR-3; > 100 µM (inactive) with UACC-257; > 100 µM (inactive) with UO-31. For the same compound, the GI50 in the assay on CCRF-CEM, in the assay with NCI-H522, in the assay on TK-10, in the assay with SW-620, with HOP-62 and in the assay on DU-145 was > 100 µM (inactive) each time. The GI50 in the assay with HCC 2998 and in the assay with RXF 393 was > 100 µM (inactive) each time.

In the case of `CCN(CC)CCn1c(=O)c2ccccc2n2c3c(=O)n(C)c(=O)n(C)c3nc12`, the GI50 is 1.17 µM (inactive) with SK-MEL-5; 3.59 µM (inactive) in the assay on EKVX; 1.47 µM (inactive) with HOP-92; 1.77 µM (inactive) in the assay on KM12; 2.21 µM (inactive) in the assay with K562; 1.6 µM (inactive) with RPMI-8226. In addition, the GI50 with IGROV-1 is 2.11 µM (inactive); with HCT-116, 1.55 µM (inactive); in the assay on HCT-15, 15.4 µM; in the assay with OVCAR-3 it was 4.06 µM (inactive); in the assay on UACC-257, 3.46 µM (inactive); in the assay on UO-31, 2.11 µM (inactive). Further, the GI50 with CCRF-CEM was 0.547 µM (active); with NCI-H522 it was 2.43 µM (inactive); with TK-10, 19.6 µM (inactive); with SW-620, 1.22 µM (inactive); in the assay on HOP-62 it was 0.718 µM (active); in the assay on DU-145, 0.771 µM (active). Further, the GI50 in the assay with HCC 2998 was 1.93 µM (inactive); in the assay with RXF 393, 5.27 µM (inactive).

In the case of `C/C=C\C(C)=C/C(C)C(=O)CC(O)CC1CC(=O)NC(=O)C1` (stereo not given), the GI50 was 17.9 µM (inactive) with SK-MEL-5; > 100 µM (inactive) with EKVX; 72.8 µM (inactive) in the assay with HOP-92; 14.6 µM (inactive) in the assay with KM12; 20.5 µM (inactive) in the assay with K562; 19 µM (inactive) in the assay with RPMI-8226. For the same compound, the GI50 in the assay on IGROV-1 is 19 µM (inactive); in the assay with HCT-116, 16.4 µM (inactive); in the assay with HCT-15, 13.4 µM; in the assay with OVCAR-3, 22.3 µM (inactive); in the assay with UACC-257, 22.2 µM (inactive); with UO-31, 20.1 µM (inactive). Besides, the GI50 in the assay on CCRF-CEM was 10.1 µM (inactive); in the assay on NCI-H522, 2.01 µM (inactive); with TK-10, 49.2 µM (inactive); in the assay with SW-620, 20.2 µM (inactive); with HOP-62 it was 12.1 µM (inactive); in the assay with DU-145, 19.1 µM (inactive). For the same compound, the GI50 is 33.5 µM (inactive) in the assay on HCC 2998 and 17.1 µM (inactive) in the assay with RXF 393.

For `C1=C\CCCCN2C[C@H]3CCCC/C=C\CCCCN4CC[C@@H]([C@H](CCCCCC/1)C4)[C@H](C3)C2`, the GI50 was 1.61 µM (inactive) in the assay with SK-MEL-5; 7.11 µM (inactive) with EKVX; 2.38 µM (inactive) in the assay on HOP-92; 1.82 µM (inactive) in the assay with KM12; 1.47 µM (inactive) in the assay with K562; 1.57 µM (inactive) with RPMI-8226. For the same compound, the GI50 with IGROV-1 is 3.37 µM (inactive); in the assay with HCT-116, 2.11 µM (inactive); in the assay on HCT-15, 1.77 µM; with OVCAR-3, 1.8 µM (inactive); in the assay on UACC-257, 1.76 µM (inactive); with UO-31, 1.66 µM (inactive). Further, the GI50 in the assay on CCRF-CEM was 2.58 µM (inactive); in the assay on NCI-H522 it was 1.69 µM (inactive); in the assay with TK-10 it was 2.28 µM (inactive); in the assay with SW-620, 2.44 µM (inactive); in the assay with HOP-62, 2.23 µM (inactive); in the assay with DU-145, 5.48 µM (inactive). The concentration for 50% growth inhibition (GI50) in the assay on HCC 2998 is 0.51 µM (active); in the assay on RXF 393, 1.52 µM (inactive).

For `COC(=O)CC1C=CC(C)(OC)OO1` (stereo not given), the GI50 in the assay with SK-MEL-5 was > 100 µM (inactive); in the assay on EKVX, > 100 µM (inactive); in the assay on HOP-92, > 100 µM (inactive); in the assay with KM12, > 100 µM (inactive); with K562, 19.7 µM (inactive); with RPMI-8226 it was 56.2 µM (inactive). In addition, the GI50 is > 100 µM (inactive) in the assay on IGROV-1; > 100 µM (inactive) with HCT-116; 39.4 µM with HCT-15; 87.7 µM (inactive) in the assay with OVCAR-3; > 100 µM (inactive) in the assay on UACC-257; > 100 µM (inactive) in the assay with UO-31. The GI50 with CCRF-CEM was 15.7 µM (inactive); in the assay on NCI-H522, 16.9 µM (inactive); in the assay with TK-10, > 100 µM (inactive); in the assay on SW-620, 27.2 µM (inactive); in the assay with HOP-62 it was > 100 µM (inactive); with DU-145, > 100 µM (inactive). Moreover, the GI50 in the assay on HCC 2998 was 59.7 µM (inactive); in the assay on RXF 393, 51.1 µM (inactive).

On to `O=c1cc(NNc2cccc3ccccc23)[nH]c(=O)[nH]1`, for which the GI50 with SK-MEL-5 was 15.8 µM (inactive); in the assay on EKVX, 14.6 µM (inactive); with HOP-92 it was 17.4 µM (inactive); in the assay on KM12 it was 16.4 µM (inactive); in the assay on K562, 12.9 µM (inactive); in the assay on RPMI-8226, 5.53 µM (inactive). Also, the GI50 with IGROV-1 is 15.4 µM (inactive); in the assay on HCT-116 it was 17.4 µM (inactive); in the assay with HCT-15, 12.4 µM; in the assay with OVCAR-3 it was 14 µM (inactive); in the assay with UACC-257, 15.7 µM (inactive); with UO-31, 16.3 µM (inactive). Further, the GI50 is 10.1 µM (inactive) with CCRF-CEM; 14.8 µM (inactive) in the assay on NCI-H522; 19.7 µM (inactive) with TK-10; 20 µM (inactive) in the assay on SW-620; 17 µM (inactive) in the assay on HOP-62; 15.3 µM (inactive) in the assay with DU-145. Also, the results for the GI50 with HCC 2998 and in the assay on RXF 393 were 20 µM (inactive) and 17.9 µM (inactive), respectively.

Take `COC(=O)C1=C(C(=O)OC)C2(c3ccccc3)c3ccccc3C(=O)C1N2C1CCCCC1` (stereo not given): the GI50 in the assay on SK-MEL-5 was 26.2 µM (inactive); in the assay with EKVX it was 55.6 µM (inactive); in the assay on HOP-92 it was > 100 µM (inactive); in the assay with KM12 it was 17.8 µM (inactive); in the assay with K562, 3.42 µM (inactive); in the assay on RPMI-8226 it was 6.9 µM (inactive). Further, the GI50 is 49.4 µM (inactive) with IGROV-1; 14.7 µM (inactive) with HCT-116; 48.2 µM in the assay on HCT-15; 72.6 µM (inactive) in the assay on OVCAR-3; 11.9 µM (inactive) in the assay on UACC-257; 13 µM (inactive) in the assay with UO-31. Further, the GI50 in the assay with CCRF-CEM is 26.7 µM (inactive); with NCI-H522, 34.6 µM (inactive); with TK-10 it was 31.3 µM (inactive); with SW-620, 41.3 µM (inactive); with HOP-62, > 68.9 µM (inactive); in the assay with DU-145, > 100 µM (inactive). The GI50 in the assay on HCC 2998 is 23.2 µM (inactive); in the assay on RXF 393, 33.7 µM (inactive).

In the case of `CC1(C)OCC(COC(=O)C=[N+]=[N-])O1` (stereo not given), the GI50 was > 100 µM (inactive) in the assay on SK-MEL-5; > 100 µM (inactive) in the assay on EKVX; 14.9 µM (inactive) with HOP-92; > 100 µM (inactive) with KM12; > 10 µM (inactive) in the assay with K562; > 100 µM (inactive) in the assay with RPMI-8226. Further, the GI50 is > 100 µM (inactive) in the assay with IGROV-1; > 100 µM (inactive) in the assay with HCT-116; > 100 µM in the assay on HCT-15; > 100 µM (inactive) in the assay on OVCAR-3; > 100 µM (inactive) in the assay with UACC-257; > 100 µM (inactive) in the assay with UO-31. The GI50 in the assay with CCRF-CEM was > 100 µM (inactive); in the assay on NCI-H522, > 100 µM (inactive); with TK-10, > 100 µM (inactive); in the assay on SW-620 it was > 100 µM (inactive); in the assay with HOP-62, 79.8 µM (inactive); in the assay on DU-145, > 100 µM (inactive). Besides, the GI50 in the assay with HCC 2998 and in the assay on RXF 393 was > 100 µM (inactive) throughout.
